Legend:
SOD [1] = assay: SOD activity of brain tissues from Aβ(25-35)-induced dementia rats; type: in vivo, Male Wistar rats; conditions: Aβ(25-35) rats; for SOD activity in the cortex: 2 weeks, vehicle 286.8±18.3
Method: (§1) The biochemical assays were conducted later (in 24 h) after behavioral testing. Eight rats in each group were anesthetized with ether and sacrificed. The brains were quickly removed and cleaned with ice-cold saline. Then the parietal cortex and hippocampus were isolated. For biochemical analysis, the tissues were weighed and homogenized in ice-cold saline with the proportion of 1:9 (w/v). Homogenization (IKA, Germany) was carried out for 2 min in an ice bath. After the homogenates were centrifuged at 2,000×g for 10 min at 4° C. (Sigma, Germany), the supernatant was used for analytical procedures. The levels of choline acetyltransferase (ChAT) SOD, and MDA activities were determined with commercial colorimetric assay kits (Nanjing Jiancheng Bioengineering Institute, China). The content of protein in the supernatant was determined by Bradford method using BSA as standard.
Rats were divided into four experimental groups randomly (10 rats/each group): one sham-operated group, one vehicle control group, and two dl-PHPB-treated groups (39, and 129 mg/kg). At 1 days after operation, drugs and vehicle were administered orally to rats for 14 days (one time/each day). The spatial learning and memory abilities of rats were detected by Morris water maze in the 9-12 days after operation. The testing of Morris water was commenced at 40 min after drugs treated. The biochemical and pathology assays conducted later (in 24 h) after behavioral testing.
(§2) The methods as described previously.

SOD [2] = assay: SOD activity of brain tissues from SAMP8 mice; type: in vivo; conditions: 35 days; for SOD activity in the hippocampus: untreated SAMP8 279.4±65.7, P<0.05
Method: as §1
SAMP8 were divided into three experimental groups randomly: one vehicle control group, and two dl-PHPB-treated groups (50, and 160 mg/kg). Drugs and vehicle were administered orally to SAMP8 mice for 35 days (one time/each day). The spatial learning and memory abilities of SAMP8 mice were detected by Morris water maze and DTT-2 jumping apparatus in 31-35 days. The testing was commenced at 40 min after drugs treated. The biochemical and pathology assays conducted later (in 24 h) after behavioral testing.
as §2

BDNF = BDNF immunohistochemistry in 2-VO rats; type: in vivo, rat; conditions: for BDNF expression in hippocampus CA1, CA2, CA3 area: 21 days
Method: The method for tissue fixation was described above. Serial coronal sections (40 μm) of the brains were cut through the dorsal hippocampus on a freezing microtome and collected in 6-well plates containing 0.01 M PBS. The detection of GFAP and BDNF immunoreactivity was performed using a conventional avidin-biotin-immunoperoxidease technique.
For quantitative analysis, one from every five samples in a continuous series of hippocampal or cortical tissue sections was taken, and was processed immunohistochemically. Thus, three slides were taken from each rat, and were read under an objective (×1.6) microscope. The total area of positively stained neurons was counted with Image-pro Plus 5.0 software.

SOD [3] = assay: SOD activity of brain tissues from permanent 2-VO rats; type: in vivo, rat; conditions: for SOD activity in cortex: 21 days
Method: (§3) In 10 days after onset of 2-VO, drugs and vehicle were administered orally to rats for 21 days (one time/each day). The spatial learning and memory capability of rats were detected by Morris water maze in the 25-30 days after operation. The Morris water test was commenced at 40 min after drugs treated. The biochemical and pathology assays were conducted later (in 24 h) after behavioral tests.
as §1

MDA = MDA level of brain tissues from permanent 2-VO rats; type: in vivo, rat; conditions: for MDA level in cortex: 21 days
Method: as §3, §1

CCCCC(O)c1ccccc1C(=O)[O-].[K+] (racemic) [dl-PHPB, Potassium 2-(1-Hydroxypentyl)-benzoate]
SOD activity in the cortex (SOD [1]; 39 mg/kg oral): 238.2±32.7 U/mg protein
SOD activity in the cortex (SOD [1]; 129 mg/kg oral, P<0.01): 185.2±21.6 U/mg protein
SOD activity in the hippocampus (SOD [1]; hippocampus): not significantly improved
SOD activity in the hippocampus (SOD [2]; 50 mg/kg oral): 156.2±7.8 U/mg protein
SOD activity in the hippocampus (SOD [2]; 160 mg/kg oral): 158.7±11.4 U/mg protein
SOD activity in the cortex (SOD [2]; cortex): did not significantly improve SOD activity
BDNF expression in hippocampus CA1, CA2, CA3 area (BDNF; dl-PHPB 39 mg/kg, P<0.05 or P<0.01): significantly increased BDNF expression
BDNF expression in hippocampus CA1, CA2, CA3 area (BDNF; dl-PHPB 129 mg/kg): only a trend without statistical significance
expression of BDNF in the cortex (staining intensity) (BDNF; strongest at 39 mg/kg, succeeded by 129 mg/kg and 13 mg/kg): increase the expression of BDNF
SOD activity in cortex (SOD [3]; dl-PHPB 13 mg/kg): significantly alleviated the increase of SOD activity
SOD activity in cortex (SOD [3]; dl-PHPB 39 mg/kg): significantly alleviated the increase of SOD activity
SOD activity in hippocampus (SOD [3]; hippocampus, doses not given): no significant effects
MDA level in cortex (MDA; dl-PHPB 13 mg/kg): decreased MDA level
MDA level in cortex (MDA; dl-PHPB 39 mg/kg): decreased MDA level
MDA level in cortex (MDA; dl-PHPB 129 mg/kg): decreased MDA level
MDA level in hippocampus (MDA; hippocampus, doses not given): no significant effects

Source: patent publication US20110224300A1, “USE OF POTASSIUM 2-(a- HYDROXYPENTYL) BENZOATE IN THE MANUFACTURE OF MEDICAMENTS FOR PREVENTING AND/OR TREATING SENILE [sequence]” (Institute of Mataria Medica, Chinese Academy of Me, priority 2008, published 2011)
